Results taken from patent US8410112B2, “Compounds useful as inhibitors of ATR kinase” (Vertex Pharmaceuticals Incorporated, priority 2008, dated 2013).

molecular target: T1, full-length ATR (Homo sapiens, UniProt Q13535); test: ATR Inhibition Assay (radioactive-phosphate incorporation); format: biochemical; details: Ki(app); 5 nM full-length ATR, 10 μM ATP, 800 μM target peptide, 25° C.
T1 construct: in the presence of 5 nM full-length ATR
Outline: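 Buffer was 50 mM Tris/HCl pH 7.5, 10 mM MgCl2, 1 mM DTT, with 5 nM enzyme, 10 μM [γ-33P]ATP and 800 μM target peptide at 25 °C. Compound was pre-incubated 10 min before ATP start, and the reaction was stopped after 24 h. Phosphocellulose filter capture; Ki(app) came from non-linear regression of background-corrected initial rates.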

T1 sequence (Q13535 whole entry): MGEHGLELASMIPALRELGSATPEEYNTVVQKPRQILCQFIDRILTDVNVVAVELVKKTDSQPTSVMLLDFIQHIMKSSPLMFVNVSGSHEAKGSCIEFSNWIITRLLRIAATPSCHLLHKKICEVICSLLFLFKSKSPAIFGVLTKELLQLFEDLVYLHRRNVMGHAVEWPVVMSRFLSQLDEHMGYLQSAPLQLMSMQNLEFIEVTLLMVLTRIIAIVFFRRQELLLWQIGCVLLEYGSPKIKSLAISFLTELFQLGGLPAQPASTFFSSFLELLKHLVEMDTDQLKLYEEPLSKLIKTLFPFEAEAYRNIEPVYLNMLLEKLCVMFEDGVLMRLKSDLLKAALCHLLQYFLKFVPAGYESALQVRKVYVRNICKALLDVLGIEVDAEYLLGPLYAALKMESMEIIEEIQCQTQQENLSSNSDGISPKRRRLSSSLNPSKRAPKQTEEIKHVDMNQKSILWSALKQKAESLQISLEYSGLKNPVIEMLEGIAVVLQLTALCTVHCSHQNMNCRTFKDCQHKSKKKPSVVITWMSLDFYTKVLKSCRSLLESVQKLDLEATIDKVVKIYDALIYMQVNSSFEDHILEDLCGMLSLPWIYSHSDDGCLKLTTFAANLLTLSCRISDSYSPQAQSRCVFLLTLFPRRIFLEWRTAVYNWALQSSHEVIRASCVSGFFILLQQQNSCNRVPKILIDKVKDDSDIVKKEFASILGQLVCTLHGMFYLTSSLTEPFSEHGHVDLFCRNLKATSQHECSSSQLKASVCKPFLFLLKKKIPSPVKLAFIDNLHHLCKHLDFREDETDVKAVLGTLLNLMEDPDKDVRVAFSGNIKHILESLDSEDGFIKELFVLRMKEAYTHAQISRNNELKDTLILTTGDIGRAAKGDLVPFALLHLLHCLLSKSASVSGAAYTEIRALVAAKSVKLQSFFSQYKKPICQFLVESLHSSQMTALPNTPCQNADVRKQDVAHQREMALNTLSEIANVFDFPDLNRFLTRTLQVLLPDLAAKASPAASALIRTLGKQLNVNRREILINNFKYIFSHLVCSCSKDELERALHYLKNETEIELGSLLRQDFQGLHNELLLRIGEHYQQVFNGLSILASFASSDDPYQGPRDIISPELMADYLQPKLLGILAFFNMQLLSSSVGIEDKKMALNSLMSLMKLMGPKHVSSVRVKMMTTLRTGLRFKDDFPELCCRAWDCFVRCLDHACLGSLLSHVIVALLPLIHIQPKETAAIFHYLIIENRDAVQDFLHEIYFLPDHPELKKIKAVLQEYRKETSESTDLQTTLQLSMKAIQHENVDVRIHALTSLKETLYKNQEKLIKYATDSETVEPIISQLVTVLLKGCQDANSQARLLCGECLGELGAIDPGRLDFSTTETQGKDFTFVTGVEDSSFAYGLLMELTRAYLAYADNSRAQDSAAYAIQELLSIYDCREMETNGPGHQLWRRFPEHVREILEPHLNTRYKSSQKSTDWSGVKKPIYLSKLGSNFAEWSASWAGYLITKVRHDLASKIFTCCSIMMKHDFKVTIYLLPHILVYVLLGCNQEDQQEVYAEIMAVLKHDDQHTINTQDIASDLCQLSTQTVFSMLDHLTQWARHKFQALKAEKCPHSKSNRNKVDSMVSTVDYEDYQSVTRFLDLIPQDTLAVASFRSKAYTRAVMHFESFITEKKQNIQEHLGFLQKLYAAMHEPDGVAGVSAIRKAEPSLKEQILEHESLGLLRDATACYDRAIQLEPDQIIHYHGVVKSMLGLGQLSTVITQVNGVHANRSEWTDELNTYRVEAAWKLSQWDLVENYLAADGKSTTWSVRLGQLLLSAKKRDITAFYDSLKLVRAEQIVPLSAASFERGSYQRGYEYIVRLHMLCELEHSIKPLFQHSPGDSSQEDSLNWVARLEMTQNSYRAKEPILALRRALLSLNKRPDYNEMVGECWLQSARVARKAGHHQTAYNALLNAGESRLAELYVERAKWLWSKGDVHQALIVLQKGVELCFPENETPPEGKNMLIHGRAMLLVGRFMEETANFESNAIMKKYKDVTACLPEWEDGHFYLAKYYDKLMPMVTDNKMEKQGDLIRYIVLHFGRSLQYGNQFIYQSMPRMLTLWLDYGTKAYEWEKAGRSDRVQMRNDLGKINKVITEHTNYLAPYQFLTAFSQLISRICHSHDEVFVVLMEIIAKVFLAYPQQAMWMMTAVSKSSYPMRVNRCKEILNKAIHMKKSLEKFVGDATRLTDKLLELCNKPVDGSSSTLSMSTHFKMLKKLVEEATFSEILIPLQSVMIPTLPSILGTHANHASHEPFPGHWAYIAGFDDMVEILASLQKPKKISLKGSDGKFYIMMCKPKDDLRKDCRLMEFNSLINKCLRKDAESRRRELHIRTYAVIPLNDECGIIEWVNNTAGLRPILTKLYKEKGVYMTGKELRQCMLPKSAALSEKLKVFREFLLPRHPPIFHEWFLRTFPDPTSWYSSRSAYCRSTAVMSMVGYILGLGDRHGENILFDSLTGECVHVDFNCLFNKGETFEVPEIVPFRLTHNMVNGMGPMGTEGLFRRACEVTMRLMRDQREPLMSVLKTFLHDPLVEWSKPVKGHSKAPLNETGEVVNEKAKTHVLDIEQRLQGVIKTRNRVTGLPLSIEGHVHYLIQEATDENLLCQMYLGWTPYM

SMILES	Ki
Nc1ncc(N2CCN(C(=O)c3cccnc3)CC2)nc1-c1nnc(-c2ccccc2)o1 [Compound I-183, (4-(5-amino-6-(5-phenyl-1,3,4-oxadiazol-2-yl)pyrazin-2-yl)piperazin-1-yl)(pyridin-3-yl)methanone]	100 to 1000 nM
CCS(=O)(=O)N1CC=C(c2cnc(N)c(C(=O)Nc3nc4ccccc4[nH]3)n2)CC1 [Compound I-172, 3-amino-N-(1H-benzo[d]imidazol-2-yl)-6-(1-(ethylsulfonyl)-1,2,3,6-tetrahydropyridin-4-yl)pyrazine-2-carboxamide]	< 100 nM
CC#CCOC(=O)N1CCN(c2cnc(N)c(-c3nc4ccccc4[nH]3)n2)CC1 [Compound I-272, but-2-ynyl 4-(5-amino-6-(1H-benzo[d]imidazol-2-yl)pyrazin-2-yl)piperazine-1-carboxylate]	1000 to 10000 nM
Nc1ncc(N2CCN(C(=O)N3CCOCC3)CC2)nc1-c1nnc(-c2ccccc2)o1 [Compound I-216, (4-(5-amino-6-(5-phenyl-1,3,4-oxadiazol-2-yl)pyrazin-2-yl)piperazin-1-yl)(morpholino)methanone]	100 to 1000 nM
CCS(=O)(=O)N1CC=C(c2cnc(N)c(-c3nc4c(F)cccc4[nH]3)n2)CC1 [Compound I-155, 5-(1-(ethylsulfonyl)-1,2,3,6-tetrahydropyridin-4-yl)-3-(4-fluoro-1H-benzo[d]imidazol-2-yl)pyrazin-2-amine]	< 100 nM
CN(C)C(=O)N1CCN(c2cnc(N)c(C(=O)Nc3ccccn3)n2)CC1 [Compound I-229, 3-amino-6-(4-(dimethylcarbamoyl)piperazin-1-yl)-N-(pyridin-2-yl)pyrazine-2-carboxamide]	100 to 1000 nM
Cn1cnc(S(=O)(=O)N2CC=C(c3cnc(N)c(-c4nnc(-c5ccccc5)o4)n3)CC2)c1 [Compound I-120, 5-(1-(1-methyl-1H-imidazol-4-ylsulfonyl)-1,2,3,6-tetrahydropyridin-4-yl)-3-(5-phenyl-1,3,4-oxadiazol-2-yl)pyrazin-2-amine]	< 100 nM
COCC(=O)N1CCN(c2cnc(N)c(C(=O)Nc3ccccn3)n2)CC1 [Compound I-147, 3-amino-6-(4-(2-methoxyethanoyl)piperazin-1-yl)-N-(pyridin-2-yl)pyrazine-2-carboxamide]	1000 to 10000 nM
Nc1ncc(C2=CCN(S(=O)(=O)c3cccs3)CC2)nc1-c1nc2ccccc2[nH]1 [Compound I-79, 3-(1H-benzo[d]imidazol-2-yl)-5-(1-(thiophen-2-ylsulfonyl)-1,2,3,6-tetrahydropyridin-4-yl)pyrazin-2-amine]	< 100 nM
Nc1ncc(N2CCN(S(=O)(=O)c3ccccc3)CC2)nc1-c1nnc(-c2ccccc2)o1 [Compound I-196, 3-(5-phenyl-1,3,4-oxadiazol-2-yl)-5-(4-(phenylsulfonyl)piperazin-1-yl)pyrazin-2-amine]	100 to 1000 nM
CN(C)CC(=O)N1CC=C(c2cnc(N)c(-c3nc4ccccc4[nH]3)n2)CC1 [Compound I-186, 1-(4-(5-amino-6-(1H-benzo[d]imidazol-2-yl)pyrazin-2-yl)-5,6-dihydropyridin-1(2H)-yl)-2-(dimethylamino)ethanone]	100 to 1000 nM
Nc1ncc(C2=CCN(C(=O)N3CCCNCC3)CC2)nc1-c1nc2ccccc2[nH]1 [Compound I-279, (4-(5-amino-6-(1H-benzo[d]imidazol-2-yl)pyrazin-2-yl)-5,6-dihydropyridin-1(2H)-yl)(1,4-diazepan-1-yl)methanone]	100 to 1000 nM
COCC(=O)N[C@H]1CCN(c2cnc(N)c(-c3nc4ccccc4[nH]3)n2)C1 [Compound I-182, (S)-N-(1-(5-amino-6-(1H-benzo[d]imidazol-2-yl)pyrazin-2-yl)pyrrolidin-3-yl)-2-methoxyethanamide]	1000 to 10000 nM
CCNC(=O)O[C@H]1CCN(c2cnc(N)c(-c3nnc(-c4ccc(CNC)cc4)o3)n2)C1 [Compound I-372, [(3S)-1-[5-Amino-6-[5-[4-(methylaminomethyl)phenyl]-1,3,4-oxadiazol-2-yl]pyrazin-2-yl]pyrrolidin-3-yl]N-ethylcarbamate]	100 to 1000 nM
Nc1ncc(C2=CCN(c3ccccc3)CC2)nc1-c1nc2ccccc2[nH]1 [Compound I-159, 3-(1H-benzo[d]imidazol-2-yl)-5-(1-phenyl-1,2,3,6-tetrahydropyridin-4-yl)pyrazin-2-amine]	100 to 1000 nM
Nc1ncc(N2CC[C@H](NC(=O)C3CCCC3)C2)nc1-c1nc2ccccc2[nH]1 [Compound I-204, (S)-N-(1-(5-amino-6-(1H-benzo[d]imidazol-2-yl)pyrazin-2-yl)pyrrolidin-3-yl)cyclopentanecarboxamide]	100 to 1000 nM
COCC(=O)N1CC=C(c2cnc(N)c(-c3nnc(-c4ccccc4)o3)n2)CC1 [Compound I-130, 1-(4-(5-amino-6-(5-phenyl-1,3,4-oxadiazol-2-yl)pyrazin-2-yl)-5,6-dihydropyridin-1(2H)-yl)-2-methoxyethanone]	< 100 nM

SMILES	Ki
CNCc1ccc(-c2nnc(-c3nc(N4C[C@@H]5[C@H](C4)[C@@H]5NS(=O)(=O)C(C)C)cnc3N)o2)cc1 [Compound I-370, N-[(1S,5R)-3-[5-Amino-6-[5-[4-(methylaminomethyl)phenyl]-1,3,4-oxadiazol-2-yl]pyrazin-2-yl]-3-azabicyclo[3.1.0]hexan-6-yl]propane-2-sulfonamide]	100 to 1000 nM
CCS(=O)(=O)N1CCN(c2cnc(N)c(-c3cc(-c4ccccc4)ncn3)n2)CC1 [Compound I-74, 5-(4-(ethylsulfonyl)piperazin-1-yl)-3-(6-phenylpyrimidin-4-yl)pyrazin-2-amine]	100 to 1000 nM
Nc1ncc(N2CCN(C(=O)C3CCC3)CC2)nc1-c1nnc(-c2ccccc2)o1 [Compound I-189, (4-(5-amino-6-(5-phenyl-1,3,4-oxadiazol-2-yl)pyrazin-2-yl)piperazin-1-yl)(cyclobutyl)methanone]	100 to 1000 nM
CC(C)C(=O)N1CC=C(c2cnc(N)c(-c3nnc(-c4ccccc4)o3)n2)CC1 [Compound I-192, 1-(4-(5-amino-6-(5-phenyl-1,3,4-oxadiazol-2-yl)pyrazin-2-yl)-5,6-dihydropyridin-1(2H)-yl)-2-methylpropan-1-one]	< 100 nM
CCC(=O)N1CCC2(CCN(c3cnc(N)c(-c4nnc(-c5ccc(CNC)cc5)o4)n3)C2)C1 (stereo not shown) [Compound I-342, 1-(7-(5-Amino-6-(5-(4-((methylamino)methyl)phenyl)-1,3,4-oxadiazol-2-yl)pyrazin-2-yl)-2,7-diazaspiro[4.4]nonan-2-yl)propan-1-one]	100 to 1000 nM
CCS(=O)(=O)N1CCN(c2cnc(N)c(-c3nnc(-c4ccc(CNC)cc4)o3)n2)CC1(C)C [Compound I-328, 5-(4-Ethylsulfonyl-3,3-dimethyl-piperazin-1-yl)-3-[5-[4-(methylaminomethyl)phenyl]-1,3,4-oxadiazol-2-yl]pyrazin-2-amine]	100 to 1000 nM
Nc1ncc(N2CCN(C(=O)N3CCCCC3)CC2)nc1-c1nnc(-c2ccccc2)o1 [Compound I-231, (4-(5-amino-6-(5-phenyl-1,3,4-oxadiazol-2-yl)pyrazin-2-yl)piperazin-1-yl)(piperidin-1-yl)methanone]	100 to 1000 nM
Nc1ncc(C2=CCN(C(=O)c3ccccn3)CC2)nc1-c1nc2ccccc2[nH]1 [Compound I-139, (4-(5-amino-6-(1H-benzo[d]imidazol-2-yl)pyrazin-2-yl)-5,6-dihydropyridin-1(2H)-yl)(pyridin-2-yl)methanone]	< 100 nM
Nc1ncc(N2CCN(Cc3ccccc3)CC2)nc1-c1nnc(-c2ccccc2)o1 [Compound I-300, 5-(4-benzylpiperazin-1-yl)-3-(5-phenyl-1,3,4-oxadiazol-2-yl)pyrazin-2-amine]	1000 to 10000 nM
CN(C)CC(=O)N1CCN(c2cnc(N)c(C(=O)Nc3ccccn3)n2)CC1 [Compound I-150, 3-amino-6-(4-(2-(dimethylamino)ethanoyl)piperazin-1-yl)-N-(pyridin-2-yl)pyrazine-2-carboxamide]	1000 to 10000 nM
CCS(=O)(=O)N1CC=C(c2cnc(N)c(-c3nc4ccc(C)c(C)c4[nH]3)n2)CC1 [Compound I-152, 3-(6,7-dimethyl-1H-benzo[d]imidazol-2-yl)-5-(1-(ethylsulfonyl)-1,2,3,6-tetrahydropyridin-4-yl)pyrazin-2-amine]	100 to 1000 nM
Nc1ncc(N2CCN(S(=O)(=O)c3ccsc3)CC2)nc1-c1nnc(-c2ccccc2)o1 [Compound I-98, 3-(5-phenyl-1,3,4-oxadiazol-2-yl)-5-(4-(thiophen-3-ylsulfonyl)piperazin-1-yl)pyrazin-2-amine]	100 to 1000 nM
Cc1ccc2nc(-c3nc(C4=CCN(S(=O)(=O)N(C)C)CC4)cnc3N)[nH]c2c1 [Compound I-23, 4-(5-amino-6-(6-methyl-1H-benzo[d]imidazol-2-yl)pyrazin-2-yl)-N,N-dimethyl-5,6-dihydropyridine-1(2H)-sulfonamide]	< 100 nM
CC#CCOC(=O)N1CCN(c2cnc(N)c(-c3nnc(-c4ccccc4)o3)n2)CC1 [Compound I-246, but-2-ynyl 4-(5-amino-6-(5-phenyl-1,3,4-oxadiazol-2-yl)pyrazin-2-yl)piperazine-1-carboxylate]	100 to 1000 nM
Nc1ncc(C2=CCN(C(=O)N3CCNCC3)CC2)nc1-c1nc2ccccc2[nH]1 [Compound I-280, (4-(5-amino-6-(1H-benzo[d]imidazol-2-yl)pyrazin-2-yl)-5,6-dihydropyridin-1(2H)-yl)(piperazin-1-yl)methanone]	100 to 1000 nM
Cc1cccc(C)c1C(=O)N1CC=C(c2cnc(N)c(-c3nc4ccccc4[nH]3)n2)CC1 [Compound I-263, (4-(5-amino-6-(1H-benzo[d]imidazol-2-yl)pyrazin-2-yl)-5,6-dihydropyridin-1(2H)-yl)(2,6-dimethylphenyl)methanone]	< 100 nM
CNCc1ccc(-c2nnc(-c3nc(N4CCC(N5CCCC5=O)CC4)cnc3N)o2)cc1 [Compound I-364, 1-(1-(5-Amino-6-(5-(4-((methylamino)methyl)phenyl)-1,3,4-oxadiazol-2-yl)pyrazin-2-yl)piperidin-4-yl)pyrrolidin-2-one]	100 to 1000 nM
